Measured values reported in US8987301B2, “Heteroarylaminoquinolines as TGF-beta receptor kinase inhibitors” (Merck Patent GmbH, priority 2009, dated 2015).

Target: T1, TβR (GST-ALK5) (Homo sapiens, UniProt P36897)
T1 sequence (P36897 34-503): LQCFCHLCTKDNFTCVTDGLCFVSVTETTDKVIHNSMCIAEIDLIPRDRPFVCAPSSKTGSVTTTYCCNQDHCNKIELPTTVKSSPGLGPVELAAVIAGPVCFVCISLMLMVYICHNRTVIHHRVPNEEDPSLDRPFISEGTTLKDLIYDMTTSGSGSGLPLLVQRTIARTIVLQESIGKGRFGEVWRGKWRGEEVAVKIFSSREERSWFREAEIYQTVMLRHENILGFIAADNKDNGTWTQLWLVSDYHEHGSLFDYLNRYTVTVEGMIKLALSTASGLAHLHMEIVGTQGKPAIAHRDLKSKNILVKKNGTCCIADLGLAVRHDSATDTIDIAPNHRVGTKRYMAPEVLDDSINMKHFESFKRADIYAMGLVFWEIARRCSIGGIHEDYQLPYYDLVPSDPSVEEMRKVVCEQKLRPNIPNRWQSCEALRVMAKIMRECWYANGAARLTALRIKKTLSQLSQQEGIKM
Assay: In-vitro (enzyme) flashplate kinase assay, TβR activity
Format: biochemical
Conditions: GST-ALK5, GST-SMAD2 substrate, 3 mM ATP
Experimental: In-Vitro (Enzyme) Assay for Determination of the Efficacy of Inhibitors of the Inhibition of TGF-Beta-Mediated Effects
The kinase assay was carried out as 384-well flashplate assay. […] The reaction was stopped using 25 μl of 200 mM EDTA solution, filtered with suction at room temperature after 30 min, and the wells were washed with 3 times 100 μl of 0.9% NaCl solution. Radioactivity was measured in the TopCount. The IC50 values were calculated using RS1. Above and below, all temperatures were indicated in ° C.

SMILES | IC50 [nM]
Nc1ncnc(Nc2cc(-c3cc(Cl)ccc3F)nc3ccccc23)n1 [compound 078] | < 500
CN(C)c1cccc(-c2cc(Nc3ccncc3)c3ccccc3n2)c1 [compound 079] | 1000 to 10000
CN(C)c1cccc(-c2cc(Nc3cc(N)ncn3)c3ccccc3n2)c1 [compound 080] | > 10000
CN(C)c1cccc(-c2cc(Nc3ccncn3)c3ccccc3n2)c1 [compound 081] | > 10000
O=c1[nH]c2cnccc2n(-c2cc(-c3cc(Cl)ccc3F)nc3ccccc23)c1=O [compound 082] | 1000 to 10000
FC(F)(F)c1ccccc1-c1cc(Nc2ccncc2)c2ccccc2n1 [compound 083] | > 10000
Fc1ccc(Br)cc1-c1cc(Nc2ccncc2)c2ccccc2n1 [compound 084] | < 500
CC(=O)OCC(=O)Nc1cnccc1Nc1cc(-c2cc(Cl)ccc2F)nc2ccccc12 [compound 085] | < 500
COCC(=O)Nc1cnccc1Nc1cc(-c2cc(Cl)ccc2F)nc2ccccc12 [compound 086] | < 500
Fc1ccc(Cl)cc1-c1cc(Nc2cnncc2Nc2cc(-c3cc(Cl)ccc3F)nc3ccccc23)c2ccccc2n1 [compound 087] | > 10000
CC(=O)OC(C)(C)C(=O)Nc1cnccc1Nc1cc(-c2cc(Cl)ccc2F)nc2ccccc12 [compound 088] | 1000 to 10000
COCc1nc2cnccc2n1-c1cc(-c2cc(Cl)ccc2F)nc2ccccc12 [compound 089, 2-(5-Chloro-2-fluoro-phenyl)-4-(2-methoxymethyl-imidazo[4,5-c]pyridin-1-yl)-quinoline] | < 500
COc1cnccc1Nc1cc(-c2cc(Cl)ccc2F)nc2ccccc12 [compound 090, [2-(5-Chloro-2-fluoro-phenyl)-quinolin-4-yl]-(3-methoxy-pyridin-4-yl)-amine] | < 500
CN(C)CCCc1nc2cnccc2n1-c1cc(-c2cc(Cl)ccc2F)nc2ccccc12 [compound 091] | 1000 to 10000
Nc1cnncc1Nc1cc(-c2cc(Cl)ccc2F)nc2ccccc12 [compound 092] | 1000 to 10000
CC(C)(C)Sc1cnccc1Nc1cc(-c2cc(Cl)ccc2F)nc2ccccc12 [compound 094] | 500 to 1000
Fc1ccc(Cl)cc1-c1cc(Nc2ccncc2)c2cc3c(cc2n1)OCO3 [compound 095] | > 10000
CC(C)(C)S(=O)(=O)c1cnccc1Nc1cc(-c2cc(Cl)ccc2F)nc2ccccc12 [compound 096] | > 10000
CN1CCN(c2cc(Nc3cc(-c4cc(Cl)ccc4F)nc4ccccc34)cc(Cl)n2)CC1 [compound 097] | > 10000
Oc1ccc2c(Nc3cc(-c4cc(Cl)ccc4F)nc4ccccc34)ccnc2c1 [compound 098] | 500 to 1000
Oc1ccccc1-c1cc(Nc2ccncc2)c2ccccc2n1 [compound 099] | > 10000
CN1CCN(c2cc(Nc3cc(-c4cc(Cl)ccc4F)nc4ccccc34)ccn2)CC1 [compound 100] | 1000 to 10000
CCOc1cc(Nc2cc(-c3cc(Cl)ccc3F)nc3ccccc23)ccn1 [compound 101] | > 10000
CN(C)CCCNc1cc(Nc2cc(-c3cc(Cl)ccc3F)nc3ccccc23)cc(Cl)n1 [compound 102] | 1000 to 10000
CN1CCN(c2cc(Nc3cc(-c4cc(Cl)ccc4F)nc4ccccc34)ncn2)CC1 [compound 103] | > 10000

SMILES | IC50 [nM]
COc1cc(Nc2cc(-c3cc(Cl)ccc3F)nc3ccccc23)ncn1 [compound 104] | > 10000
Nc1cc(Nc2cc(-c3cc(Cl)ccc3F)nc3ccccc23)ccn1 [compound 105] | < 500
Fc1ccc(Cl)cc1-c1cc(Nc2cc(N3CCOCC3)ncn2)c2ccccc2n1 [compound 106] | > 10000
CC(=O)Nc1cc(Nc2cc(-c3cc(Cl)ccc3F)nc3ccccc23)ccn1 [compound 107] | < 500
Clc1ccc(-c2cc(Nc3ccncc3)c3ccccc3n2)cc1Cl [compound 108] | > 10000
O=C(CO)Nc1cnccc1Nc1cc(-c2cc(Cl)ccc2F)nc2ccccc12 [compound 109] | 500 to 1000
CC(=O)N(c1cc(N)ncn1)c1cc(-c2cc(Cl)ccc2F)nc2ccccc12 [compound 110] | 1000 to 10000
CC(C)(C)C(=O)Nc1cc(Nc2cc(-c3cc(Cl)ccc3F)nc3ccccc23)ccn1 [compound 111] | 1000 to 10000
Clc1cccc(-c2cc(Nc3ccncc3)c3ccccc3n2)c1Cl [compound 112] | > 10000
CCC(=O)Nc1cc(Nc2cc(-c3cc(Cl)ccc3F)nc3ccccc23)ccn1 [compound 113] | < 500
CC(C)(C)OC(=O)NCC(=O)Nc1cc(Nc2cc(-c3cc(Cl)ccc3F)nc3ccccc23)ccn1 [compound 114] | 1000 to 10000
NCC(=O)Nc1cc(Nc2cc(-c3cc(Cl)ccc3F)nc3ccccc23)ccn1 [compound 115] | 1000 to 10000
COC(=O)c1cnccc1Nc1cc(-c2cc(Cl)ccc2F)nc2ccccc12 [compound 116] | < 500
Nc1nc(N)nc(Nc2cc(-c3cc(Cl)ccc3F)nc3ccccc23)n1 [compound 117] | 1000 to 10000
Nc1ncnc(Nc2cc(-c3cc(C(F)(F)F)ccc3F)nc3ccccc23)n1 [compound 118] | < 500
CNC(=O)c1cnccc1Nc1cc(-c2cc(Cl)ccc2F)nc2ccccc12 [compound 119] | < 500
OCc1cnccc1Nc1cc(-c2cc(Cl)ccc2F)nc2ccccc12 [compound 120] | < 500
CN(C)CCCNc1cc(Nc2cc(-c3ccccc3F)nc3ccccc23)ccn1 [compound 121] | < 500
N#Cc1cncnc1Nc1cc(-c2cc(Cl)ccc2F)nc2ccccc12 [compound 122] | < 500
CN(C)CCNC(=O)c1cnccc1Nc1cc(-c2cc(Cl)ccc2F)nc2ccccc12 [compound 123] | < 500
O=C(O)c1cc(Nc2cc(-c3cc(Cl)ccc3F)nc3ccccc23)ccn1 [compound 124] | 1000 to 10000
CN1CCC(NC(=O)c2cnccc2Nc2cc(-c3cc(Cl)ccc3F)nc3ccccc23)CC1 [compound 125] | < 500
CN1CCN(C(=O)c2cnccc2Nc2cc(-c3cc(Cl)ccc3F)nc3ccccc23)CC1 [compound 126] | 1000 to 10000
OCc1cnccc1Nc1cc(-c2ccccc2F)nc2ccccc12 [compound 127] | < 500
